According to patent US5237055A, “Chemical modification of 2"-amino group in elsamicin A” (Bristol-Myers Squibb Company, priority 1992, dated 1993):
In brackets after ≈: the same amount, converted by molar mass. Counter-ions that a name gives are not always drawn.

Legend:
[1] = system: lymphocytic leukemia P388; assay: In vivo antitumor activity against P388 leukemia in mice; parameters: species or system mice (female CDF1); details: for prolongation of life-span in the P388-bearing mice / times less active than the parent compound in terms of minimum effective doses (MED): P388, Q1Dx3, ip; for times less active than the parent compound in terms of minimum effective doses (MED): relative to elsamicin A
Procedure: (§1) Among the derivatives tested, in vivo antitumor activity of six derivatives showing relatively potent cytotoxicity was tested in the lymphocytic leukemia P388 and B16 melanoma systems. Female CDF1 (for P388) and male BDF1 (for B16) mice were inoculated by ip injection at 10^6 P388 cells and 0.5 ml of a 10% B16 brei per mouse, respectively (day 0). […] The percent increase of median survival time (MST) of treated animals over that of untreated control animals was determined and reported as T/C %. Compounds showing T/C % values of 125 or greater are considered to have significant antitumor activity. […] The others had no activity at the doses tested. Derivatives 4d, 4e, and 5 when tested in the B16 system, also gave 10-30 times less antitumor activity than elsamicin A in terms of MED (Table 5).

[2] = system: murine melanoma B16-F10 cells; assay: cells; details: Mus musculus, B16-F10, 72 h, read-out: Cytotoxicity IC50
Procedure: For in vitro cytotoxicity experiment, murine melanoma B16-F10 cells were grown and maintained in Eagle's minimum essential medium (Nissui), which contains kanamycin (60 μg/ml), supplemented with heat-inactivated fetal calf serum (10%) and nonessential amino acids (0.6%) at 37° C. under a humidified atmosphere in a 5% CO2 incubator. Exponentially growing B16-F10 cells were harvested, counted and suspended in the culture medium at the concentration of 2.0×10^4 cells/ml. The cell suspension (180 μl) was planted into wells of a 96-well microtiter plate and incubated for 24 hours. Test compounds (20 μl) were added to the wells and the plates were further incubated for 72 hours. The cytotoxic activity was colorimetrically determined at 540 nm after staining viable cells with neutral red solution.

B16 melanoma = assay: In vivo antitumor activity against B16 melanoma in mice; parameters: species or system mice (male BDF1); details: B16, Q4Dx3 ip; relative to elsamicin A
Procedure: as §1

Structure (SMILES) | T/C % of MST ([1]; P388, 20 mg/kg/day, Q1Dx3, ip) | IC50 [2] | prolongation of life-span in the P388-bearing mice [1] | times less active than the parent compound in terms of minimum effective doses (MED) [1] | times less antitumor activity than elsamicin A in terms of MED (B16 melanoma)
CO[C@@H]1[C@@H](N)[C@@H](O[C@H]2[C@H](Oc3cccc4c(O)c5c(=O)oc6ccc(C)c7c(=O)oc(c34)c5c67)O[C@H](C)[C@H](O)[C@]2(C)O)O[C@H](C)[C@@H]1O [Compound 1, Elsamicin A] | Tox |  |  |  | 
CO[C@H]1[C@@H](O)[C@@H](C)O[C@H](O[C@H]2[C@H](Oc3cccc4c(O)c5c(=O)oc6ccc(C)c7c(=O)oc(c34)c5c67)O[C@H](C)[C@H](O)[C@]2(C)O)[C@@H]1NC(C)=O [Compound 3a, 2"-N-Acetylelsamicin A] |  | 55 mg/L (≈ 79.1 µM) |  |  | 
CO[C@H]1[C@@H](O)[C@@H](C)O[C@H](O[C@H]2[C@H](Oc3cccc4c(O)c5c(=O)oc6ccc(C)c7c(=O)oc(c34)c5c67)O[C@H](C)[C@H](O)[C@]2(C)O)[C@@H]1NC(=O)CCC(=O)O [Compound 3b, 2"-N-(3-Carboxypropionyl)elsamicin A] |  | 56 mg/L (≈ 74.3 µM) |  |  | 
CO[C@H]1[C@@H](O)[C@@H](C)O[C@H](O[C@H]2[C@H](Oc3cccc4c(O)c5c(=O)oc6ccc(C)c7c(=O)oc(c34)c5c67)O[C@H](C)[C@H](O)[C@]2(C)O)[C@@H]1NC(=O)CN [Compound 3d, 2"-N-Glycylelsamicin A] |  | 4.1 mg/L (≈ 5.77 µM) |  |  | 
CO[C@H]1[C@@H](O)[C@@H](C)O[C@H](O[C@H]2[C@H](Oc3cccc4c(O)c5c(=O)oc6ccc(C)c7c(=O)oc(c34)c5c67)O[C@H](C)[C@H](O)[C@]2(C)O)[C@@H]1NC(C)C [Compound 4a, 2"-N-Isopropylelsamicin A] |  | 1.5 mg/L (≈ 2.16 µM) | quite limited prolongation of life-span | 10-30 times | 
CN[C@H]1[C@@H](O[C@H]2[C@H](Oc3cccc4c(O)c5c(=O)oc6ccc(C)c7c(=O)oc(c34)c5c67)O[C@H](C)[C@H](O)[C@]2(C)O)O[C@H](C)[C@H](O)[C@@H]1OC [Compound 4d, 2"-N-Methylelsamicin A] |  | 1.7 mg/L (≈ 2.55 µM) | quite limited prolongation of life-span | 10-30 times | 10-30 times
CO[C@H]1[C@@H](O)[C@@H](C)O[C@H](O[C@H]2[C@H](Oc3cccc4c(O)c5c(=O)oc6ccc(C)c7c(=O)oc(c34)c5c67)O[C@H](C)[C@H](O)[C@]2(C)O)[C@@H]1N(C)C [Compound 4e, 2"-N,N-Dimethylelsamicin A] |  | 0.36 mg/L (≈ 0.528 µM) | quite limited prolongation of life-span | 10-30 times | 10-30 times
CO[C@H]1[C@@H](O)[C@@H](C)O[C@H](O[C@H]2[C@H](Oc3cccc4c(O)c5c(=O)oc6ccc(C)c7c(=O)oc(c34)c5c67)O[C@H](C)[C@H](O)[C@]2(C)O)[C@@H]1N1CCOCC1 [Compound 4f, 2"-Deamino-2"-morpholinoelsamicin A] |  | 11 mg/L (≈ 15.2 µM) |  |  | 
CO[C@H]1[C@@H](O)[C@@H](C)O[C@H](O[C@H]2[C@H](Oc3cccc4c(O)c5c(=O)oc6ccc(C)c7c(=O)oc(c34)c5c67)O[C@H](C)[C@H](O)[C@]2(C)O)[C@@H]1NC=N [Compound 5, 2"-N-Formimidoylelsamicin A hydrochloride] |  | 0.47 mg/L | quite limited prolongation of life-span | 10-30 times | 10-30 times
